In patent US20240398811A1, “PRC2 INHIBITORS FOR USE IN TREATING BLOOD DISORDERS” (ORIC Pharmaceuticals, Inc., priority 2021, published 2024):
pIC50: −log10 of the molar value.

Target: purified human, His-tagged PRC2 complex (Homo sapiens (Human), UniProt O75530)
Assay: Hot Spot HMT assay, inhibition of PRC2 enzymatic activity
Type: biochemical
Details: 10 nM PRC2 complex, 1 μM 3H-SAM, core histone H3, 10-point dose-response
In short: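 Five-subunit PRC2 complex (EZH2, EED, SUZ12, AEBP2, RbAp48; 10 nM) preincubated 20 min at 30° C with compound (top 1.0 μM) and 0.05 mg/ml core histone H3 in Tris-HCl, 1% DMSO. Started with 1 μM [3H]SAM, 1 hr at 30° C; tritiated H3 measured by filter binding and scintillation.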

purified human, His-tagged PRC2 complex, sequence (O75530 whole entry): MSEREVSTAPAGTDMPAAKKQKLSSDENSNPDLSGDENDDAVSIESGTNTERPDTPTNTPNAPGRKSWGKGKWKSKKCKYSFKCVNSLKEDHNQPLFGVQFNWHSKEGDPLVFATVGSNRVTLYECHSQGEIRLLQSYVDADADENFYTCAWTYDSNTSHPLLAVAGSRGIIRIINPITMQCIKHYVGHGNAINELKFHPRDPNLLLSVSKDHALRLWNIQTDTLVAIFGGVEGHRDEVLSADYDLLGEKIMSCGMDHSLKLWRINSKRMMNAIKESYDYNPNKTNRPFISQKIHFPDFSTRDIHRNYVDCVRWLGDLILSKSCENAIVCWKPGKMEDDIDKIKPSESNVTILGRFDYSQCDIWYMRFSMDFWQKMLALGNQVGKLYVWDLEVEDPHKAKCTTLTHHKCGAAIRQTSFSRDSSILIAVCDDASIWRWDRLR
purified human, His-tagged PRC2 complex, sequence (Q15910 whole entry partner): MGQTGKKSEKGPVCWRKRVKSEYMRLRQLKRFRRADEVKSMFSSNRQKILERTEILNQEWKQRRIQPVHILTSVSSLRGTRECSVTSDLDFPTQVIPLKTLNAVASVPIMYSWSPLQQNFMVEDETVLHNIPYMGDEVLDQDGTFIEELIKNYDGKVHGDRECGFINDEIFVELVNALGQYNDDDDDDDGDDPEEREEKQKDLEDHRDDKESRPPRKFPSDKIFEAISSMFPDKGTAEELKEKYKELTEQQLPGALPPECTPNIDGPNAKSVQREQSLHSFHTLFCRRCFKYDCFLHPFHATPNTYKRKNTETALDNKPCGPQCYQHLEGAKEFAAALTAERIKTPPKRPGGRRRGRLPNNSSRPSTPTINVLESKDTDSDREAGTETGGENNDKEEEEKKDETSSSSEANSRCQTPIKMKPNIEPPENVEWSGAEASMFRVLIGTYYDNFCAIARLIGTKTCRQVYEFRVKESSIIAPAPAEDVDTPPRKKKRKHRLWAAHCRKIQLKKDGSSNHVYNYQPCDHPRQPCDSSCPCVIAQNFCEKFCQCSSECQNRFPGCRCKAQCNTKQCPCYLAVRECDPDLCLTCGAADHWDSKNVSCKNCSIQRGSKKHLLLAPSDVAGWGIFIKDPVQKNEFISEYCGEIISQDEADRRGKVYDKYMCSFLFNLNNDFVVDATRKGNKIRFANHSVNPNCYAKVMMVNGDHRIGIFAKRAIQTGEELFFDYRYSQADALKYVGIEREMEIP
purified human, His-tagged PRC2 complex, sequence (Q15022 whole entry partner): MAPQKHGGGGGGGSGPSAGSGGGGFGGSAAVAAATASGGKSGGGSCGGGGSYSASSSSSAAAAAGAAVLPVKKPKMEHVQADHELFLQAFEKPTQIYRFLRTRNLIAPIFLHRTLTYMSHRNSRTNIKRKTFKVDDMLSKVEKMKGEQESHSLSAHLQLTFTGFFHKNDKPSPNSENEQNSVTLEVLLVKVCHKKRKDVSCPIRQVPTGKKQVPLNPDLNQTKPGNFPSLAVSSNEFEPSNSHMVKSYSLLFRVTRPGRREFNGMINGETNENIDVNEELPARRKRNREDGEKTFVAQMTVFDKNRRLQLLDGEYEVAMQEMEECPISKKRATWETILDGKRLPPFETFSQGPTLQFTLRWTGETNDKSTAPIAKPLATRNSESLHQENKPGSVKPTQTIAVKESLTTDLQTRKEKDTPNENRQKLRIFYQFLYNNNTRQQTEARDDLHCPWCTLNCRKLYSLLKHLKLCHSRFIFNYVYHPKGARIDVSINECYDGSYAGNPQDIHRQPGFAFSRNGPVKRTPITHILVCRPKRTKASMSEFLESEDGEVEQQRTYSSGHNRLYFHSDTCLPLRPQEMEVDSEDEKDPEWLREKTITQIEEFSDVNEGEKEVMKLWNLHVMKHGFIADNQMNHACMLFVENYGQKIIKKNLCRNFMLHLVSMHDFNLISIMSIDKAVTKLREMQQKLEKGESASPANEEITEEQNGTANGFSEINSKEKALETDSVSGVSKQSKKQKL
purified human, His-tagged PRC2 complex, sequence (Q6ZN18 whole entry partner): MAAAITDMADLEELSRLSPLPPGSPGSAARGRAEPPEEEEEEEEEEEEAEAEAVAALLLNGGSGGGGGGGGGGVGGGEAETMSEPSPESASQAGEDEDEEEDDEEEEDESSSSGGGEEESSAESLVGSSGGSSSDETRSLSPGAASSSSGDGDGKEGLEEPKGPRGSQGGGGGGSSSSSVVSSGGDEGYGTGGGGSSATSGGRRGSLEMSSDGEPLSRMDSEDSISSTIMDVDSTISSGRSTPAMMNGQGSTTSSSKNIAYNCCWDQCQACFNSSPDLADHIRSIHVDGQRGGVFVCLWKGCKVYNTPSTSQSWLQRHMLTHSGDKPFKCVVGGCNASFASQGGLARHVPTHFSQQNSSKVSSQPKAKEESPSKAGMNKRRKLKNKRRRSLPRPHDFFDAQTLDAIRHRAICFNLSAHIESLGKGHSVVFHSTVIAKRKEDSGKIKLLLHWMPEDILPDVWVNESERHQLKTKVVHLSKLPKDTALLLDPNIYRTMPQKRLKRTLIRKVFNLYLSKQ
purified human, His-tagged PRC2 complex, sequence (Q09028 whole entry partner): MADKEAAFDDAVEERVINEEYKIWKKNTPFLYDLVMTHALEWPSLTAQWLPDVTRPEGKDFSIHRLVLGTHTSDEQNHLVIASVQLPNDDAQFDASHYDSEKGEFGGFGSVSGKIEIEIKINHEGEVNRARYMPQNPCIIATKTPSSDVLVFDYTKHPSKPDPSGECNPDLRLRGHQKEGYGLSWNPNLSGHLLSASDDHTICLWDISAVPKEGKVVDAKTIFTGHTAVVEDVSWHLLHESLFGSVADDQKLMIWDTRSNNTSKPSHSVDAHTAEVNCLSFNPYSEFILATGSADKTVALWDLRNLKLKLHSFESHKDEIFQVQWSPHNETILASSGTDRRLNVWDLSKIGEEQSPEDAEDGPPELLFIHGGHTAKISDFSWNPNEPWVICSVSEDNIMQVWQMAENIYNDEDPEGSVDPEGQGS

| pIC50 | Compound |
| --- | --- |
| > 7.00 | [2H]C([2H])(Nc1ncc(-c2ccc(CN(C)C)cc2)c2nc(C#N)cn12)c1c(F)ccc2c1CCO2 [Example 165, 8-(4-((dimethylamino)methyl)phenyl)-5-(((5-fluoro-2,3-dihydrobenzofuran-4-yl)methyl-d2)amino)imidazo[1,2-c]pyrimidine-2-carbonitrile] |
| > 7.00 | COC(=O)c1ccc(-c2cnc(NCc3c(F)ccc4c3CCO4)n3cc(C#N)nc23)cn1 [Example 166, methyl 5-(2-cyano-5-(((5-fluoro-2,3-dihydrobenzofuran-4-yl)methyl)amino)imidazo[1,2-c]pyrimidin-8-yl)picolinate] |
| 6.30 to 7.00 | COC(=O)c1ccc(-c2cnc(NCc3c(F)ccc4c3CCO4)n3cc(C#N)nc23)cc1 [Example 167, methyl 4-(2-cyano-5-(((5-fluoro-2,3-dihydrobenzofuran-4-yl)methyl)amino)imidazo[1,2-c]pyrimidin-8-yl)benzoate] |
| > 7.00 | CN1CCc2cc(-c3cnc(NCc4c(F)ccc5c4CCO5)n4cc(C#N)nc34)ccc2C1=O [Example 168, 5-(((5-fluoro-2,3-dihydrobenzofuran-4-yl)methyl)amino)-8-(2-methyl-1-oxo-1,2,3,4-tetrahydroisoquinolin-6-yl)imidazo[1,2-c]pyrimidine-2-carbonitrile] |
| > 7.00 | COC(=O)c1cc(-c2cnc(NCc3c(F)ccc4c3CCO4)n3cc(C#N)nc23)n(C)n1 [Example 169, methyl 5-(2-cyano-5-(((5-fluoro-2,3-dihydrobenzofuran-4-yl)methyl)amino)imidazo[1,2-c]pyrimidin-8-yl)-1-methyl-1H-pyrazole-3-carboxylate] |
| > 7.00 | CN(C)C(=O)c1cc(-c2cnc(NCc3c(F)ccc4c3CCO4)n3cc(C#N)nc23)n(C)n1 [Example 170, 5-(2-cyano-5-(((5-fluoro-2,3-dihydrobenzofuran-4-yl)methyl)amino)imidazo[1,2-c]pyrimidin-8-yl)-N,N,1-trimethyl-1H-pyrazole-3-carboxamide] |
| > 7.00 | CN(C)C1(c2ccc(-c3cnc(NCc4c(F)ccc5c4CCO5)n4cc(C#N)nc34)cc2)CC1 [Example 171, 8-(4-(1-(dimethylamino)cyclopropyl)phenyl)-5-(((5-fluoro-2,3-dihydrobenzofuran-4-yl)methyl)amino)imidazo[1,2-c]pyrimidine-2-carbonitrile] |
| > 7.00 | N#Cc1cn2c(NCc3c(F)ccc4c3CCO4)ncc(-c3ccc4c(c3)CCNC4=O)c2n1 [Example 172, 5-(((5-fluoro-2,3-dihydrobenzofuran-4-yl)methyl)amino)-8-(1-oxo-1,2,3,4-tetrahydroisoquinolin-6-yl)imidazo[1,2-c]pyrimidine-2-carbonitrile] |
| > 7.00 | [2H]C([2H])(c1ccc(-c2cnc(NCc3c(F)ccc4c3CCO4)n3cc(C#N)nc23)c(C)c1)N(C)C [Example 173, 8-(4-((dimethylamino)methyl-d2)-2-methylphenyl)-5-(((5-fluoro-2,3-dihydrobenzofuran-4-yl)methyl)amino)imidazo[1,2-c]pyrimidine-2-carbonitrile] |
| > 7.00 | N#Cc1cn2c(NCc3c(F)ccc4c3CCO4)ncc(-c3cccc(C(=O)O)c3)c2n1 [Example 174, 3-(2-cyano-5-(((5-fluoro-2,3-dihydrobenzofuran-4-yl)methyl)amino)imidazo[1,2-c]pyrimidin-8-yl)benzoic acid] |
| 6.30 to 7.00 | Cc1ccc(-c2cnc(NCc3c(F)ccc4c3CCO4)n3cc(C#N)nc23)cc1 [Example 175, 5-(((5-fluoro-2,3-dihydrobenzofuran-4-yl)methyl)amino)-8-(p-tolyl)imidazo[1,2-c]pyrimidine-2-carbonitrile] |
| > 7.00 | Cc1c(C#N)cccc1-c1cnc(NCc2c(F)ccc3c2CCO3)n2cc(C#N)nc12 [Example 176, 8-(3-cyano-2-methylphenyl)-5-(((5-fluoro-2,3-dihydrobenzofuran-4-yl)methyl)amino)imidazo[1,2-c]pyrimidine-2-carbonitrile] |
| 6.30 to 7.00 | Cc1ccc(C#N)cc1-c1cnc(NCc2c(F)ccc3c2CCO3)n2cc(C#N)nc12 [Example 177, 8-(5-cyano-2-methylphenyl)-5-(((5-fluoro-2,3-dihydrobenzofuran-4-yl)methyl)amino)imidazo[1,2-c]pyrimidine-2-carbonitrile] |
| > 7.00 | CC(O)Cn1cc(-c2cnc(NCc3c(F)ccc4c3CCO4)n3cc(C#N)nc23)cn1 (stereo not drawn) [Example 179, 5-(((5-fluoro-2,3-dihydrobenzofuran-4-yl)methyl)amino)-8-(1-(2-hydroxypropyl)-1H-pyrazol-4-yl)imidazo[1,2-c]pyrimidine-2-carbonitrile] |
| > 7.00 | CN(C)C(=O)c1ccc(-c2cnc(NCc3c(F)ccc4c3CCO4)n3cc(C#N)nc23)cc1 [Example 180, 4-(2-cyano-5-(((5-fluoro-2,3-dihydrobenzofuran-4-yl)methyl)amino)imidazo[1,2-c]pyrimidin-8-yl)-N,N-dimethylbenzamide] |
| > 7.00 | N#Cc1cn2c(NCc3c(F)ccc4c3CCO4)ncc(-c3ccc(C(=O)N4CCOCC4)cc3)c2n1 [Example 181, 5-(((5-fluoro-2,3-dihydrobenzofuran-4-yl)methyl)amino)-8-(4-(morpholine-4-carbonyl)phenyl)imidazo[1,2-c]pyrimidine-2-carbonitrile] |
| 6.30 to 7.00 | N#Cc1cn2c(NCc3c(F)ccc4c3CCO4)ncc(-c3cnn(CCO)c3)c2n1 [Example 182, 5-(((5-fluoro-2,3-dihydrobenzofuran-4-yl)methyl)amino)-8-(1-(2-hydroxyethyl)-1H-pyrazol-4-yl)imidazo[1,2-c]pyrimidine-2-carbonitrile] |
| > 7.00 | N#Cc1cn2c(NCc3c(F)ccc4c3CCO4)ncc(-c3ccc(C(=O)O)cc3)c2n1 [Example 183, 4-(2-cyano-5-(((5-fluoro-2,3-dihydrobenzofuran-4-yl)methyl)amino)imidazo[1,2-c]pyrimidin-8-yl)benzoic acid] |
| 6.30 to 7.00 | Cc1cc(S(=O)(=O)C(F)(F)F)ccc1-c1cnc(NCc2c(F)ccc3c2CCO3)n2cc(C#N)nc12 [Example 184, 5-(((5-fluoro-2,3-dihydrobenzofuran-4-yl)methyl)amino)-8-(2-methyl-4-((trifluoromethyl)sulfonyl)phenyl)imidazo[1,2-c]pyrimidine-2-carbonitrile] |
| > 7.00 | CNCc1ccc(-c2cnc(NCc3c(F)ccc4c3CCO4)n3cc(C#N)nc23)cc1 [Example 185, 5-(((5-fluoro-2,3-dihydrobenzofuran-4-yl)methyl)amino)-8-(4-((methylamino)methyl)phenyl)imidazo[1,2-c]pyrimidine-2-carbonitrile] |
| > 7.00 | CNC(=O)c1ccc(-c2cnc(NCc3c(F)ccc4c3CCO4)n3cc(C#N)nc23)cc1 [Example 186, 4-(2-cyano-5-(((5-fluoro-2,3-dihydrobenzofuran-4-yl)methyl)amino)imidazo[1,2-c]pyrimidin-8-yl)-N-methylbenzamide] |
| > 7.00 | N#Cc1cn2c(NCc3c(F)ccc4c3CCO4)ncc(-c3ccccc3C#N)c2n1 [Example 187, 8-(2-cyanophenyl)-5-(((5-fluoro-2,3-dihydrobenzofuran-4-yl)methyl)amino)imidazo[1,2-c]pyrimidine-2-carbonitrile] |
| 6.30 to 7.00 | N#Cc1cc(-c2cnc(NCc3c(F)ccc4c3CCO4)n3cc(C#N)nc23)ccn1 [Example 188, 8-(2-cyanopyridin-4-yl)-5-(((5-fluoro-2,3-dihydrobenzofuran-4-yl)methyl)amino)imidazo[1,2-c]pyrimidine-2-carbonitrile] |
| 6.30 to 7.00 | CN(C)CCOc1ccc(-c2cnc(NCc3c(F)ccc4c3CCO4)n3cc(C#N)nc23)cc1 [Example 189, 8-(4-(2-(dimethylamino)ethoxy)phenyl)-5-(((5-fluoro-2,3-dihydrobenzofuran-4-yl)methyl)amino)imidazo[1,2-c]pyrimidine-2-carbonitrile] |
| > 7.00 | N#Cc1cn2c(NCc3c(F)ccc4c3CCO4)ncc(-c3ccc(-c4nnn[nH]4)cc3)c2n1 [Example 190, 8-(4-(1H-tetrazol-5-yl)phenyl)-5-(((5-fluoro-2,3-dihydrobenzofuran-4-yl)methyl)amino)imidazo[1,2-c]pyrimidine-2-carbonitrile] |
| 6.30 to 7.00 | COCCOc1ncc(-c2cnc(NCc3c(F)ccc4c3CCO4)n3cc(C#N)nc23)cn1 [Example 191, 5-(((5-fluoro-2,3-dihydrobenzofuran-4-yl)methyl)amino)-8-(2-(2-methoxyethoxy)pyrimidin-5-yl)imidazo[1,2-c]pyrimidine-2-carbonitrile] |
| < 6.30 | Cc1ccc(-c2cnc(NCc3c(F)ccc4c3CCO4)n3cc(C#N)nc23)c(C)c1 [Example 192, 8-(2,4-dimethylphenyl)-5-(((5-fluoro-2,3-dihydrobenzofuran-4-yl)methyl)amino)imidazo[1,2-c]pyrimidine-2-carbonitrile] |
| > 7.00 | N#Cc1cn2c(NCc3c(F)ccc4c3CCO4)ncc(-c3ccnn3C3CC3)c2n1 [Example 193, 8-(1-cyclopropyl-1H-pyrazol-5-yl)-5-(((5-fluoro-2,3-dihydrobenzofuran-4-yl)methyl)amino)imidazo[1,2-c]pyrimidine-2-carbonitrile] |
| 6.30 to 7.00 | Cn1nccc(-c2cnc(NCc3c(F)ccc4c3CCO4)n3cc(C#N)nc23)c1=O [Example 194, 5-(((5-fluoro-2,3-dihydrobenzofuran-4-yl)methyl)amino)-8-(2-methyl-3-oxo-2,3-dihydropyridazin-4-yl)imidazo[1,2-c]pyrimidine-2-carbonitrile] |
| > 7.00 | Cc1cc(CN(C)C)ncc1-c1cnc(NCc2c(F)ccc3c2CCO3)n2cc(C#N)nc12 [Example 195, 8-(6-((dimethylamino)methyl)-4-methylpyridin-3-yl)-5-(((5-fluoro-2,3-dihydrobenzofuran-4-yl)methyl)amino)imidazo[1,2-c]pyrimidine-2-carbonitrile] |
